{
  "source": "patent US12280114B2",
  "about": "“Extraction of plant source “medicinal soup” and manual preparation of “herbal medicine” and related products” (BEIJING BAISHIHEKANG PHARMACEUTICAL TECHNOLOGY (BSJPHARMA) …, priority 2018, dated 2025)",
  "key": {"fibronectin and α-SMA": {"tested_on": "fibronectin and α-SMA", "experiment": "Fibronectin/α-SMA protein expression in TGF-β1-stimulated MRC-5 cells after small RNA delivered by lipid or bencaosome (Western blot)", "assay_type": "cell-based, human", "conditions": "Examples 5 and 8; nucleic acid 400 nM; TGF-β1 3 ng/mL, 72 hours"}, "A549 cells [1]": {"tested_on": "A549 cells", "experiment": "RT-qPCR detection of nucleic acid delivered by lipid into A549 cells", "assay_type": "cell-based, human", "conditions": "HJT-sRNA-m7 double-stranded RNA, reverse evaporation method"}, "A549 cells [2]": {"tested_on": "A549 cells", "experiment": "Confocal fluorescence microscopy of lipid-delivered nucleic acid in A549 cells", "assay_type": "cell-based, human", "conditions": "boiling method; 6 hours", "experimental": "(§1) […] Then the mixture was dropped into A549 cells, and after 6 hours of co-incubation, the samples were washed three times with PBS, fixed with 4% paraformaldehyde, washed three times with PBS, stained with Alexa Fluor® 488 phalloidin for 30 min, washed 3 times with PBS, and stained with DAPI for 5 min, washed with PBS, and then sealed.\nas §1, with “Then,” for “Then”, “PBS washed,” for “washed with PBS,”"}, "A549 cells [3]": {"tested_on": "A549 cells", "experiment": "Digital PCR (ddPCR) detection of nucleic acid delivery by lipid into A549 cells", "assay_type": "cell-based, human", "conditions": "single lipid; boiling or reverse evaporation method", "experimental": "Referring to the QX200 Droplet Reader and QuantaSoft Software manual for the protocols, the results were analyzed using QuantaSoft software.\n2.2 Experimental method: total RNA was collected and extracted by TRIzol lysis buffer according to the above method, and reverse transcribed to cDNA using High capacity cRNA Reverse Transcription Kit, and the cDNA from different groups was subjected to digital PCR reaction.\n2.2 Experimental method: Total RNA was collected and extracted by TRIzol lysis buffer according to the above method, and reverse transcribed to cDNA using TaqMan™ MicroRNA Reverse Transcription KitHigh, and the cDNA from different groups was subjected to digital PCR reaction.\n2.2 Experimental method: Total RNA was collected and extracted by TRIzol lysis buffer according to the above method, and reversed to cDNA using High capacity CRNA Reverse Transcription Kit, and the cDNA from different groups was subjected to digital PCR reaction."}, "A549 cells [4]": {"tested_on": "A549 cells", "experiment": "Flow cytometry of green fluorescent protein delivered by lipid into A549 cells", "assay_type": "cell-based, human", "conditions": "10 μg/mL lipid; reverse evaporation method; 6 hours", "experimental": "(§2) Experimental method: The bencaosome was prepared by reverse evaporation of ether. 0.2 nmol green fluorescent protein dissolved in 20 μl water was added to 100 μl ether solutions containing 0 μg, 1 μg, 3 μg lipid respectively. After fully mixing, sonication was conducted for 3 min. After evaporation at 60° C. to remove organic solvent, the bencaosome solution was obtained by hydrating with 100 μL opti-MEM. Then the bencaosome was added to A549 cells and co-incubated for 6 hours. The samples were collected and tested. After washing three times with PBS, the samples were digested with trypsin for three minutes. The trypsin was removed, and then the samples were washed with PBS and blown off. Accuri® C6 instrument was used to measure.\nas §2, with “method.” for “of ether.”, “The trypsin was removed, and then the samples were washed with PBS and blown off. Accuri® C6 instrument was used to measure.” left out"}, "A549 cells [5]": {"tested_on": "A549 cells", "experiment": "Confocal fluorescence microscopy of green fluorescent protein delivered by lipid into A549 cells", "assay_type": "cell-based, human", "conditions": "reverse evaporation method; 6 hours", "experimental": "Experimental method: The bencaosome was prepared by reverse evaporation method. 0.2 nmol green fluorescent protein dissolved in 20 μl water was added to 100 μl ether solutions containing 0 μg, 0.25 μg, 0.75 μg lipid respectively. After fully mixing, sonication was conducted for 3 min. After evaporated at 60° C. to remove organic solvent, the bencaosome solution was obtained by hydrating with 100 μL opti-MEM. Then the bencaosome was added to A549 cells and co-incubated for 6 hours. The samples were collected and tested. After washing three times with PBS, the samples were fixed with 4% paraformaldehyde. After washing three times with PBS, the samples were stained with Alexa Fluor® 488 phalloidin for 30 min. After washing three times with PBS, the samples were stained with Dapi for 5 min, then washed with PBS and sealed for observation."}, "[6]": {"experiment": "In vivo delivery of small RNA into mouse blood, stomach, small intestine and liver via gavage (RT-qPCR)", "conditions": "Example 11; 10 μL single lipid + sRNA 1 nmol each, heating method; 12 hours", "description": "[Experimental method] 6-8 weeks old mice, 22-24 g, were raised in SPF room of the Animal Center of the Institute of Basic Medical Sciences of Chinese Academy of Medical Sciences. The mice were fasted for 12 hours before intragastric administration. The mice were randomly divided into 3 groups: (1) control group, 400 μl DEPC-treated water, intragastric administration; (2) free uptake group, small RNA (PGY-sRNA-26, PGY-sRNA-32 and PGY-sRNA-23), each small RNA 1 nmol/animal, dissolved in 400 μl DEPC-treated water, intragastric administration; (3) lipid No. 41 group: a mixture of small RNA (PGY-sRNA-26 and PGY-sRNA-32) and lipid No. 41 prepared by heating method was intragastrically administered, each small RNA 1 nmol/animal, lipid No. 41 10 μl/animal, dissolved in 400 μl DEPC-treated water. All tissue and organ samples were collected after 6 hours of intragastric administration. All small RNAs were single-stranded RNA modified by 3p-terminal 2-O-methylation.\nAfter 12 hours, the sample was collected to detect the amount of entry. In Vivo Delivery Experiment of Lipid Nucleic Acid Mixture • 1. […] LightCycler 480 fluorescence quantitative PCR instrument was used, and the PCR reaction conditions were: 95° C., 5 min for pre-denaturation, followed by the PCR amplification cycle: (1) 95° C., 10 s; (2) 55° C., 10 s; (3) 72° C., 20 s; a total of 40 cycles; 40° C. for 10 s in the end to cool down. […]"}},
  "data": [
    {"compound": "CCCCCCCC/C=C\\CCCCCCCCCCCC(=O)O[C@H](COC(=O)CCCCCCCCCCCCCCC)COP(=O)(O)OCCN", "note": "[lipid No. 40, PE(16:0/22:1)]", "values": [
      {"measurement": "inhibition by HJT small RNA at protein level in MRC-5 cells (Western blot)", "setting": "fibronectin and α-SMA", "result": "mediated anti-fibrotic double-stranded RNA HJT-sRNA-m7 entry into MRC-5 cells to down-regulate fibronectin protein expression"},
      {"measurement": "delivery effect of lipid compared with RNAiMAX (RT-qPCR)", "setting": "A549 cells [1]", "result": "½"},
      {"measurement": "entry of PGY-sRNA-6-Cy3 into A549 cells (confocal microscopy)", "setting": "A549 cells [2]", "result": "could effectively deliver single-stranded RNA into A549 cells"},
      {"measurement": "delivery of HJT-sRNA-m7 dsRNA into A549 cells (ddPCR)", "setting": "A549 cells [3]", "result": "could effectively deliver HJT-sRNA-m7 dsRNA into A549 cells"},
      {"measurement": "efficiency to deliver green fluorescent protein into A549 cells", "setting": "A549 cells [4]", "result": 7.2, "unit": "%"},
      {"measurement": "entry of green fluorescent protein into A549 cells (confocal microscope)", "setting": "A549 cells [5]", "result": "could effectively deliver protein into A549 cells"},
      {"measurement": "delivery of sRNA single-stranded nucleic acid into mouse blood via oral administration", "setting": "[6]", "result": "the delivery effect was better than POPC and Lipofectamine RNAiMAX"}
    ]}
  ]
}
